Measurements taken from PubChem BioAssay AID248 (DTP/NCI, 2004).
Values joined by “and” are separate entries in the source; they are usually repeats but may differ in a detail not shown here. Equal entries are not always repeated. Toxic doses and inconclusive results are not listed. Numbered stars: 1 amine (or outer) side, 2 acyl side, 3 side chain; on linkers, the order of the positions; unused ones are H or OH. Square brackets hold non-standard residues; d marks the D form. Peptide text beside a SMILES is read from it. γGlu = O=C(O)[CH](CCC(=O)[*:2])N[*:1]; Hpg = N[CH](C(=O)O)c1ccc(O)cc1

Test system: L1210 leukemia ip in BDF1 mice, survival T/C
Assay: NCI In Vivo Anticancer Drug Screen. Data for tumor model L1210 Leukemia (intraperitoneal) in B6D2F1 (BDF1) mice
Conditions: endpoint: mean survival time, higher = longer survival
Procedure, shortened: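 Survival endpoint. Drug-treated group vs vehicle group, expressed as T divided by C. Tumor passaged by transplantation.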

[1] = dose: 100.0 mg/kg/injection, schedule: Q01DX001 (ip), vehicle: saline
[2] = dose: 200.0 mg/kg/injection, schedule: Q01DX001 (ip), vehicle: saline
[3] = dose: 400.0 mg/kg/injection, schedule: Q01DX001 (ip), vehicle: saline
[4] = dose: 100.0 mg/kg/injection, schedule: Q04DX003 (ip), vehicle: saline
[5] = dose: 25.0 mg/kg/injection, schedule: Q01DX009 (ip), vehicle: saline
[6] = dose: 100.0 mg/kg/injection, schedule: Q01DX009 (ip), vehicle: saline
[7] = dose: 200.0 mg/kg/injection, schedule: Q01DX009 (ip), vehicle: saline
[8] = dose: 50.0 mg/kg/injection, schedule: Q01DX009 (ip), vehicle: saline with Tween-80
[9] = dose: 100.0 mg/kg/injection, schedule: Q01DX009 (ip), vehicle: saline with Tween-80
[10] = dose: 200.0 mg/kg/injection, schedule: Q01DX009 (ip), vehicle: saline with Tween-80
[11] = dose: 100.0 mg/kg/injection, schedule: Q04DX003 (ip), vehicle: Klucel (hydroxypropylcellulose) (HPC)
[12] = dose: 200.0 mg/kg/injection, schedule: Q04DX003 (ip), vehicle: Klucel (hydroxypropylcellulose) (HPC)
[13] = dose: 400.0 mg/kg/injection, schedule: Q04DX003 (ip), vehicle: Klucel (hydroxypropylcellulose) (HPC)
[14] = dose: 100.0 mg/kg/injection, schedule: Q04DX003 (ip), vehicle: saline with Tween-80
[15] = dose: 200.0 mg/kg/injection, schedule: Q04DX003 (ip), vehicle: saline with Tween-80
[16] = dose: 400.0 mg/kg/injection, schedule: Q01DX009 (ip), vehicle: saline with Tween-80
[17] = dose: 400.0 mg/kg/injection, schedule: Q04DX003 (ip), vehicle: saline with Tween-80

Structure (SMILES): CC(NC(=O)CCC(NC(=O)C(Cc1ccc(O)cc1)NC(=O)CNC(=O)C(C)NC(=O)CCC(NC(=O)C(N)c1ccc(O)cc1)C(=O)O)C(=O)O)C(=O)NCC(=O)NCC(=O)O (stereo unspecified) (H-[Hpg][γGlu]AGY[γGlu]AGG-OH; configuration not given here)
- T/C [1]: 97 % of control
- T/C [2]: 98 % of control
- T/C [3]: 97 % of control

Structure (SMILES): CN(CCC(=O)c1ccccc1)C(C)(C)C
- T/C [4]: 100 % of control

Structure (SMILES): CCC1CC(C#N)C(=O)NC1=O (stereo unspecified)
- T/C (dose: 6.25 mg/kg/injection, schedule: Q01DX009 (ip), vehicle: saline): 93 % of control
- T/C (dose: 12.5 mg/kg/injection, schedule: Q01DX001 (ip), vehicle: saline): 108 % of control
- T/C (dose: 12.5 mg/kg/injection, schedule: Q01DX009 (ip), vehicle: saline): 91 % of control
- T/C (dose: 12.5 mg/kg/injection, schedule: Q04DX003 (ip), vehicle: saline): 100 % of control
- T/C (dose: 25.0 mg/kg/injection, schedule: Q01DX001 (ip), vehicle: saline): 100 % of control
- T/C [5]: 93 % of control
- T/C (dose: 25.0 mg/kg/injection, schedule: Q04DX003 (ip), vehicle: saline): 92 % of control
- T/C (dose: 50.0 mg/kg/injection, schedule: Q01DX001 (ip), vehicle: saline): 110 % of control

Structure (SMILES): CCOC(=O)CN(c1c(C)cc(C)c(N(CC(=O)OCC)S(=O)(=O)c2ccccc2)c1C)S(=O)(=O)c1ccccc1
- T/C [4]: 93 % of control
- T/C (dose: 200.0 mg/kg/injection, schedule: Q04DX003 (ip), vehicle: saline): 101 % of control
- T/C (dose: 400.0 mg/kg/injection, schedule: Q04DX003 (ip), vehicle: saline): 93 % of control

Structure (SMILES): Cc1cncn1Cc1ccc([N+](=O)[O-])cc1
- T/C [5]: 101 % of control and 102 % of control
- T/C (dose: 25.0 mg/kg/injection, schedule: Q04DX002 (ip), vehicle: saline): 106 % of control and 115 % of control
- T/C (dose: 50.0 mg/kg/injection, schedule: Q01DX009 (ip), vehicle: saline): 98 % of control and 108 % of control
- T/C (dose: 50.0 mg/kg/injection, schedule: Q04DX002 (ip), vehicle: saline): 97 % of control and 100 % of control
- T/C [6]: 96 % of control

Structure (SMILES): COc1cccc(N=Cc2ccc(OC(=O)c3ccccc3)c(OC)c2)c1
- T/C (dose: 100.0 mg/kg/injection, schedule: Q01DX009 (ip), vehicle: Klucel (hydroxypropylcellulose) (HPC)): 91 % of control
- T/C (dose: 200.0 mg/kg/injection, schedule: Q01DX009 (ip), vehicle: Klucel (hydroxypropylcellulose) (HPC)): 94 % of control
- T/C (dose: 400.0 mg/kg/injection, schedule: Q01DX009 (ip), vehicle: Klucel (hydroxypropylcellulose) (HPC)): 92 % of control

Structure (SMILES): C/C=C/c1cc2c(c(=O)o1)C(=O)[C@@H](O)[C@H](C)O2
- T/C (dose: 100.0 mg/kg/injection, schedule: Q01DX001 (ip), vehicle: carboxymethylcellulose (CMC)): 92 % of control
- T/C (dose: 200.0 mg/kg/injection, schedule: Q01DX001 (ip), vehicle: carboxymethylcellulose (CMC)): 103 % of control
- T/C (dose: 400.0 mg/kg/injection, schedule: Q01DX001 (ip), vehicle: carboxymethylcellulose (CMC)): 94 % of control

Structure (SMILES): CC(=O)NCS(=O)(=O)O
- T/C [6]: 104 % of control
- T/C [7]: 96 % of control

Structure (SMILES): C(=C\c1ccc2ccccc2n1)/c1ccccc1
- T/C [8]: 119 % of control
- T/C [1]: 103 % of control
- T/C [9]: 94 % of control
- T/C [2]: 106 % of control
- T/C [10]: 109 % of control
- T/C [3]: 109 % of control

Structure (SMILES): CSc1nc(O)c(-c2ccccc2)c(=O)[nH]1
- T/C (dose: 100.0 mg/kg/injection, schedule: Q01DX Z (ip), vehicle: methylcellulose (MC)): 103 % of control
- T/C (dose: 200.0 mg/kg/injection, schedule: Q01DX Z (ip), vehicle: methylcellulose (MC)): 101 % of control

Structure (SMILES): C1OC1C[N+]12CN3CN(CN(C3)C1)C2 (stereo unspecified)
- T/C (dose: 100.0 mg/kg/injection, schedule: Q01DX005 (ip), vehicle: saline): 92 % of control
- T/C [6]: 109 % of control
- T/C (dose: 200.0 mg/kg/injection, schedule: Q01DX005 (ip), vehicle: saline): 113 % of control
- T/C [7]: 106 % of control
- T/C (dose: 400.0 mg/kg/injection, schedule: Q01DX005 (ip), vehicle: saline): 103 % of control

Structure (SMILES): COc1ccc(OC)c(NC(=O)Nc2ccc(F)cc2)c1
- T/C (dose: 12.5 mg/kg/injection, schedule: Q01DX001 (ip), vehicle: carboxymethylcellulose (CMC)): 98 % of control
- T/C (dose: 12.5 mg/kg/injection, schedule: Q01DX009 (ip), vehicle: carboxymethylcellulose (CMC)): 92 % of control and 94 % of control
- T/C (dose: 12.5 mg/kg/injection, schedule: Q04DX002 (ip), vehicle: carboxymethylcellulose (CMC)): 110 % of control
- T/C (dose: 12.5 mg/kg/injection, schedule: Q04DX003 (ip), vehicle: carboxymethylcellulose (CMC)): 95 % of control
- T/C (dose: 25.0 mg/kg/injection, schedule: Q01DX001 (ip), vehicle: carboxymethylcellulose (CMC)): 103 % of control
- T/C (dose: 25.0 mg/kg/injection, schedule: Q01DX009 (ip), vehicle: carboxymethylcellulose (CMC)): 95 % of control and 99 % of control
- T/C (dose: 25.0 mg/kg/injection, schedule: Q04DX002 (ip), vehicle: carboxymethylcellulose (CMC)): 98 % of control and 100 % of control
- T/C (dose: 25.0 mg/kg/injection, schedule: Q04DX003 (ip), vehicle: carboxymethylcellulose (CMC)): 91 % of control
- T/C (dose: 50.0 mg/kg/injection, schedule: Q01DX001 (ip), vehicle: carboxymethylcellulose (CMC)): 95 % of control
- T/C (dose: 50.0 mg/kg/injection, schedule: Q01DX009 (ip), vehicle: carboxymethylcellulose (CMC)): 92 % of control and 89 % of control
- T/C (dose: 50.0 mg/kg/injection, schedule: Q04DX002 (ip), vehicle: carboxymethylcellulose (CMC)): 97 % of control
- T/C (dose: 50.0 mg/kg/injection, schedule: Q04DX003 (ip), vehicle: carboxymethylcellulose (CMC)): 93 % of control

Structure (SMILES): Cc1cc(=O)n2c3c(c4c(cc13)c(CBr)cc(=O)n4C)OC2
- T/C (dose: 25.0 mg/kg/injection, schedule: Q01DX009 (ip), vehicle: Klucel (hydroxypropylcellulose) (HPC)): 86 % of control
- T/C (dose: 50.0 mg/kg/injection, schedule: Q01DX009 (ip), vehicle: Klucel (hydroxypropylcellulose) (HPC)): 102 % of control
- T/C (dose: 75.0 mg/kg/injection, schedule: Q01DX009 (ip), vehicle: Klucel (hydroxypropylcellulose) (HPC)): 94 % of control and 87 % of control
- T/C [11]: 103 % of control
- T/C [12]: 93 % of control
- T/C [13]: 104 % of control

Structure (SMILES): CCCC(O)(CC)CCC
- T/C [14]: 100 % of control
- T/C [15]: 100 % of control

Structure (SMILES): COC(=O)c1cn[nH]c1/N=N/N(C)C
- T/C (dose: 25.0 mg/kg/injection, schedule: Q01DX009 (ip), vehicle: other): 120 % of control
- T/C (dose: 58.0 mg/kg/injection, schedule: Q01DX009 (ip), vehicle: other): 156 % of control
- T/C (dose: 88.0 mg/kg/injection, schedule: Q01DX009 (ip), vehicle: other): 163 % of control
- T/C [1]: 107 % of control
- T/C (dose: 133.0 mg/kg/injection, schedule: Q01DX009 (ip), vehicle: saline): 155 % of control
- T/C [2]: 120 % of control
- T/C [7]: 156 % of control
- T/C [3]: 122 % of control

Structure (SMILES): O=C(/C=C/c1ccc(Cl)cc1Cl)c1ccc(Cl)cc1
- T/C [9]: 105 % of control
- T/C [14]: 95 % of control
- T/C [10]: 90 % of control
- T/C [15]: 93 % of control
- T/C [16]: 90 % of control
- T/C [17]: 88 % of control

Structure (SMILES): O=C(O)c1nc2ccccc2[nH]c1=O
- T/C [11]: 88 % of control
- T/C [12]: 92 % of control
- T/C [13]: 87 % of control

Structure (SMILES): [B]N1C(C)=CC=CC1C (stereo unspecified)
- T/C [8]: 92 % of control
- T/C [9]: 92 % of control
- T/C [10]: 89 % of control

Structure (SMILES): O=[N+]([O-])c1ccc2c(c1)c(-c1cccc(-c3ccccc3)c1)nc1ccccc12
- T/C [14]: 95 % of control
- T/C [15]: 88 % of control

Structure (SMILES): COc1ccccc1OCC(C)=O
- T/C [9]: 95 % of control
- T/C [10]: 105 % of control
- T/C [16]: 105 % of control

Structure (SMILES): S=c1nn[nH]n1C1CCCCC1
- T/C (dose: 25.0 mg/kg/injection, schedule: Q01DX009 (ip), vehicle: saline with Tween-80): 92 % of control
- T/C [8]: 88 % of control
- T/C [9]: 90 % of control
- T/C [14]: 103 % of control
- T/C [17]: 87 % of control
